Reference: patent publication US9023865B2, “Compounds that are ERK inhibitors” (Merck Sharp & Dohme Corp., priority 2011, dated 2015)

Each molecule was assayed against Active Human ERK2 (hERK2) (Homo sapiens (Human), UniProt P28482) (assay: Active Human ERK2 (hERK2) Activity Assay (IMAP-FP)). Conditions: phosphorylated active hERK2, 30 μM ATP; average; read-out: ERK 2 Human average IC50.
Format: biochemical
How it was run: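 Phosphorylation by activated human ERK2 (0.5 nM) at 30 μM ATP, peptide substrate 900 nM unlabeled with 80 nM labeled, proceeds 60 min. IMAP beads stop the reaction; after 60 min equilibration, product is measured by fluorescence polarization.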

Chain of Active Human ERK2 (hERK2) (P28482 whole entry): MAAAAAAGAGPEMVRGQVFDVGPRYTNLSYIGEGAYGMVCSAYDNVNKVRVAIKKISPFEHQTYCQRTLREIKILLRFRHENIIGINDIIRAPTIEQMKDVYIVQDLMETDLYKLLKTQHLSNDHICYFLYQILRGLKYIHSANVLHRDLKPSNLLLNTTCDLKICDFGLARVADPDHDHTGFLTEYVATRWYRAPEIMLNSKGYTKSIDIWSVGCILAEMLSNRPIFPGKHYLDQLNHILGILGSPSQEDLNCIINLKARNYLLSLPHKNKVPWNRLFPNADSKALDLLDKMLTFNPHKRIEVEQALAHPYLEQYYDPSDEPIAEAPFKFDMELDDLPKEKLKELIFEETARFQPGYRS

IC50 [nM]	SMILES
2.43	C[C@@H](NC(=O)Nc1cc2[nH]nc(C3CC3)c2cn1)c1ccc(F)cc1 [Example 141]
0.448	Cc1cc(-c2n[nH]c3cc(NC(=O)N[C@H]4CCN(CC(F)(F)F)C4)ncc23)ccn1 [Example 327]
10.6	Cc1cc(-c2n[nH]c3cc(NC(=O)NC4(c5ccccc5)CC4)ncc23)ccn1 [Example 350]
0.566	Cc1cc(-c2n[nH]c3cc(NC(=O)NC(c4ccccc4)C4CCCO4)ncc23)ccn1 (stereo not shown) [Example 237]
0.655	Cc1cc(-c2n[nH]c3cc(NC(=O)NCc4c(F)cccc4F)ncc23)ccn1 [Example 52, 1-(2,6-difluorobenzyl)-3-[3-(2-methylpyridin-4-yl)-1H-pyrazolo[4,3-c]pyridin-6-yl]urea]
9.59	Cc1cc(-c2n[nH]c3cc(NC(=O)NC4CCOc5cc(F)ccc54)ncc23)ccn1 (stereo not shown) [Example 286]
10.2	Cc1cc(-c2n[nH]c3cc(NC(=O)NC(C)(C)c4ccc(Cl)cc4)ncc23)ccn1 [Example 70, 1-[1-(4-chlorophenyl)-1-methylethyl]-3-[3-(2-methylpyridin-4-yl)-1H-pyrazolo[4,3-c]pyridin-6-yl]urea]
43.4	Cc1cc(-c2n[nH]c3cc(NC(=O)N4CC(c5cccc(F)c5)C4)ncc23)ccn1 [Example 278]
0.928	COc1cc(-c2n[nH]c3cc(NC(=O)N[C@H](C)c4ccccc4)ncc23)ccn1 [Example 661]
1.54	Cc1cc(-c2n[nH]c3cc(NC(=O)NC4(c5ccccn5)CCC4)ncc23)ccn1 [Example 355]
15.1	Cc1cc(-c2n[nH]c3cc(NC(=O)NC4(c5ccc(Cl)cc5)CCOCC4)ncc23)ccn1 [Example 77, 1-[4-(4-chlorophenyl)tetrahydro-2H-pyran-4-yl]-3-[3-(2-methylpyridin-4-yl)-1H-pyrazolo[4,3-c]pyridin-6-yl]urea]
4.54	CNC(=O)c1n[nH]c2cc(NC(=O)N[C@H](C)c3ccccc3)ncc12 [Example 137]
26	Cc1cc(-c2n[nH]c3cc(NC(=O)NC4(CN)CCc5cc(F)ccc54)ncc23)ccn1 (stereo not shown) [Example 492]
7.33	COC[C@@H](NC(=O)Nc1cc2[nH]nc(-c3ccnc(C)c3)c2cn1)c1cc(F)ccn1 [Example 169]
13.4	COC(C)CNC(=O)c1n[nH]c2cc(NC(=O)N[C@H](C)c3ccccc3)ncc12 (stereo partly shown) [Example 131]
0.479	Cc1cc(-c2n[nH]c3cc(NC(=O)N[C@@H]4[C@@H](c5ccccc5)CN(C)[C@@H]4C)ncc23)ccn1 [Example 568]
481	Cc1cc(-c2n[nH]c3cc(NC(=O)NC=C4CC4)ncc23)ccn1 [Example 38, 1-(cyclopropylidenemethyl)-3-[3-(2-methylpyridin-4-yl)-1H-pyrazolo[4,3-c]pyridin-6-yl]urea]
0.358	O=C(Nc1cc2[nH]nc(-c3ccncc3)c2cn1)N[C@H](CO)c1ccccc1 [Example 546]
6.26	Cc1cc(-c2n[nH]c3cc(NC(=O)NCCc4nc5ccccc5n4C)ncc23)ccn1 [Example 382]
6.38	C[C@@H](NC(=O)Nc1cc2[nH]nc(C(=O)NCC3(O)CC3)c2cn1)c1ccccc1 [Example 124]
16.1	COCCNC(=O)Nc1cc2[nH]nc(-c3ccnc(OC(C)C)c3)c2cn1 [Example 604]
6.6	Cc1cc(-c2n[nH]c3cc(NC(=O)NCc4nncs4)ncc23)ccn1 [Example 438]
1.34	Cc1cc(-c2n[nH]c3cc(NC(=O)NC4c5ccccc5CC4O)ncc23)ccn1 (stereo not shown) [Example 332]
0.537	Cc1cc(-c2n[nH]c3cc(NC(=O)N[C@H]4CN(C)C[C@@H]4c4ccccc4C)ncc23)ccn1 [Example 207]

More lines, now with the values behind:

SMILES	IC50 [nM]
C[C@@H](NC(=O)Nc1cc2[nH]nc(-c3ccc4nn(C)cc4c3)c2cn1)c1cccc(Cl)c1 [Example 62, 1-[(1R)-1-(3-chlorophenyl)ethyl]-3-[3-(2-methyl-2H-indazol-5-yl)-1H-pyrazolo[4,3-c]pyridin-6-yl]urea]	0.672
C[C@@H](NC(=O)Nc1cc2[nH]nc(-c3ccnc(F)c3)c2cn1)c1ccc(F)c(Cl)c1 [Example 81, 1-[(1R)-1-(3-chloro-4-fluorophenyl)ethyl]-3-[3-(2-fluoropyridin-4-yl)-1H-pyrazolo[4,3-c]pyridin-6-yl]urea]	1.91
Cc1cc(-c2n[nH]c3cc(NC(=O)N[C@@H]4CNC[C@H]4F)ncc23)ccn1 [Example 325]	3.96
CC[C@@H](NC(=O)Nc1cc2[nH]nc(-c3ccnc(C)c3)c2cn1)c1ccccn1 [Example 218]	0.487
Cc1cc(-c2n[nH]c3cc(NC(=O)NC(c4ccccc4)C(F)F)ncc23)ccn1 (stereo not shown) [Example 379]	1.51
Cc1cc(-c2n[nH]c3cc(NC(=O)N[C@H](CN)c4ccccc4)ncc23)ccn1 [Example 483]	0.152
COC[C@@H](NC(=O)Nc1cc2[nH]nc(-c3ccc(C(F)(F)F)nc3)c2cn1)c1ccc(F)cc1 [Example 305]	24.7
CCNC(=O)[C@H]1C[C@@H]1c1n[nH]c2cc(NC(=O)N[C@H](COC)c3ccccc3)ncc12 [Example 170, (1S,2S)—N-ethyl-2-(6-(3-((S)-2-methoxy-1-phenylethyl)ureido)-1H-pyrazolo[4,3-c]pyridin-3-yl)cyclopropanecarboxamide]	0.715
CCC(C)C(NC(=O)Nc1cc2[nH]nc(-c3ccnc(C)c3)c2cn1)c1ccc(Cl)cc1 (stereo not shown) [Example 404]	11.1
CCS(=O)(=O)c1ccc(-c2n[nH]c3cc(NC(=O)N[C@H](C)c4ccc(F)cc4)ncc23)cn1 [Example 311]	26.2
Cc1cc(-c2n[nH]c3cc(NC(=O)N[C@H](C)c4ccncc4)ncc23)ccn1 [Example 236]	1.51
O=C(NCC1CCC1)Nc1cc2[nH]nc(-c3ccc(F)cc3)c2cn1 [Example 592]	2.88
O=C(Nc1cc2[nH]nc(C(F)F)c2cn1)N[C@H](COCC1CC1)c1ccccc1 [Example 693]	21.4
Cc1cc(-c2n[nH]c3cc(NC(=O)NCc4ncco4)ncc23)ccn1 [Example 433]	2.97
COC[C@@H](NC(=O)Nc1cc2[nH]nc(-c3ccnc(C4CC4)c3)c2cn1)c1ccccc1 [Example 605]	0.326
Cc1cc(-c2n[nH]c3cc(NC(=O)NC4CNC4)ncc23)ccn1 [Example 39, 1-azetidin-3-yl-3-[3-(2-methylpyridin-4-yl)-1H-pyrazolo[4,3-c]pyridin-6-yl]urea]	60.3
Cc1cc(-c2n[nH]c3cc(NC(=O)NCc4ccno4)ncc23)ccn1 [Example 435]	1.08
Cc1cc(-c2n[nH]c3cc(NC(=O)N[C@H]4CN(C)C[C@@H]4C4CC4)ncc23)ccn1 [Example 209]	8.27
C[C@@H](NC(=O)Nc1cc2[nH]nc(C(=O)NCc3cccnn3)c2cn1)c1ccccc1 [Example 122]	2.55
O=C(NCCC1CCOC1)Nc1cc2[nH]nc(-c3ccc(F)cc3)c2cn1 (stereo not shown) [Example 219]	1.68

SMILES	IC50 [nM]
CCOCc1n[nH]c2cc(NC(=O)N[C@H](C)c3ccccc3)ncc12 [Example 620, 1-[3-(ethoxymethyl)-1H-pyrazolo[4,3-c]pyridin-6-yl]-3-[(1R)-1-phenylethyl]urea]	138
COc1ccnc([C@@H](C)NC(=O)Nc2cc3[nH]nc(-c4ccnc(C)c4)c3cn2)c1 [Example 231]	1.53
C[C@@H](NC(=O)Nc1cc2[nH]nc(-c3cccc(Cl)c3)c2cn1)c1ccc(F)c(Cl)c1 [Example 76, 1-[(1R)-1-(3-chloro-4-fluorophenyl)ethyl]-3-[3-(3-chlorophenyl)-1H-pyrazolo[4,3-c]pyridin-6-yl]urea]	56.1
C[C@@H](NC(=O)Nc1cc2[nH]nc(C3(C)CC3(F)F)c2cn1)c1ccc(F)cc1 (stereo partly drawn) [Example 159, 1-[3-(2,2-difluoro-1-methylcyclopropyl)-1H-pyrazolo[4,3-c]pyridin-6-yl]-3-[(1R)-1-(4-fluorophenyl)ethyl]urea]	610
Cc1cc(-c2n[nH]c3cc(NC(=O)NCc4csc5ccc(Cl)cc45)ncc23)ccn1 [Example 488]	5.85
Cc1cc(-c2n[nH]c3cc(NC(=O)NCc4ccccn4)ncc23)ccn1 [Example 479]	3.02
Cc1cc(-c2n[nH]c3cc(NC(=O)NCc4cnc(C)s4)ncc23)ccn1 [Example 434]	1.14
Cc1cc(-c2n[nH]c3cc(NC(=O)N[C@H](C)c4ccc(C(F)(F)F)nc4)ncc23)ccn1 [Example 527]	567
CC(C)Oc1ccc(-c2n[nH]c3cc(NC(=O)N[C@H](C)c4ccc(F)cc4)ncc23)cn1 [Example 250]	2.36
Cc1cc(-c2n[nH]c3cc(NC(=O)N[C@H](c4ccc(F)cc4)C(F)(F)F)ncc23)ccn1 [Example 279]	113
COc1cncc(-c2n[nH]c3cc(NC(=O)N[C@H](C)c4ccc(F)cc4)ncc23)c1 [Example 253]	3.16
Cc1cc(-c2n[nH]c3cc(NC(=O)NC4(c5ccccn5)CCCC4)ncc23)ccn1 [Example 358]	137
Cc1cc(-c2n[nH]c3cc(NC(=O)NCC(O)C(F)F)ncc23)ccn1 (stereo not shown) [Example 189]	10.3
C[C@@H](NC(=O)Nc1cc2[nH]nc(-c3ccnc(F)c3)c2cn1)c1ccc(Cl)cc1 [Example 57, 1-[(1R)-1-(4-chlorophenyl)ethyl]-3-[3-(2-fluoropyridin-4-yl)-1H-pyrazolo[4,3-c]pyridin-6-yl]urea]	1.84
COCc1n[nH]c2cc(NC(=O)N[C@H](C)c3ccccc3)ncc12 [Example 599]	7.68
CNC1(CNC(=O)Nc2cc3[nH]nc(-c4ccnc(C)c4)c3cn2)CCOC1 (stereo not shown) [Example 197]	53.7
CC(F)(F)c1n[nH]c2cc(NC(=O)NCc3ccccc3)ncc12 [Example 667]	259
C[C@@H](NC(=O)Nc1cc2[nH]nc(-c3ccc(F)cc3)c2cn1)c1ccccc1 [Example 30, 1-[3-(4-fluorophenyl)-1H-pyrazolo[4,3-c]pyridin-6-yl]-3-[(1R)-1-phenylethyl]urea]	0.85
CO[C@H](C)CNC(=O)Nc1cc2[nH]nc(-c3ccc(F)cc3)c2cn1 [Example 634]	1.3

Same assay, conditions: read-out: AERK2 IC50 (Active human ERK2 Activity Assay)

IC50 [nM]	SMILES
0.2 to 1.7	C[C@@H](NC(=O)Nc1cc2[nH]nc(-c3ccc4nn(C)cc4c3)c2cn1)c1cccc(Cl)c1 [Example 62, 1-[(1R)-1-(3-chlorophenyl)ethyl]-3-[3-(2-methyl-2H-indazol-5-yl)-1H-pyrazolo[4,3-c]pyridin-6-yl]urea]
0.2 to 1.7	Cc1cc(-c2n[nH]c3cc(NC(=O)NCc4c(F)cccc4F)ncc23)ccn1 [Example 52, 1-(2,6-difluorobenzyl)-3-[3-(2-methylpyridin-4-yl)-1H-pyrazolo[4,3-c]pyridin-6-yl]urea]
0.2 to 1.7	C[C@@H](NC(=O)Nc1cc2[nH]nc(-c3ccnc(F)c3)c2cn1)c1ccc(Cl)cc1 [Example 57, 1-[(1R)-1-(4-chlorophenyl)ethyl]-3-[3-(2-fluoropyridin-4-yl)-1H-pyrazolo[4,3-c]pyridin-6-yl]urea]
0.2 to 1.7	C[C@@H](NC(=O)Nc1cc2[nH]nc(-c3ccc(F)cc3)c2cn1)c1ccccc1 [Example 30, 1-[3-(4-fluorophenyl)-1H-pyrazolo[4,3-c]pyridin-6-yl]-3-[(1R)-1-phenylethyl]urea]
